From paper PMC6152416, “Pharmacological and Toxicological Screening of Novel Benzimidazole-Morpholine Derivatives as Dual-Acting Inhibitors” (Molecules : A Journal of Synthetic Chemistry and Natural …, 2017)
Values after ≈ are worked out from the molar mass of the structure shown.

Key:
[1] = tested on: NIH/3T3 mouse embryonic fibroblast cell line; assay: MTT cytotoxicity assay; type: cell-based; conditions: NIH/3T3
Procedure: (§1) Cytotoxicity was tested using NIH/3T3 mouse embryonic fibroblast cell line (ATCC® CRL-1658™, London, UK). NIH/3T3 cells were incubated according to the supplier’s recommendations. NIH/3T3 cells were seeded as 1 × 10^4 cells into each well of 96-well plates. MTT assay was performed as previously described. The compounds were tested between 1 mM and 0.000316 mM concentrations (1.0, 0.316, 0.10, 0.0316, 0.01, 0.00316, 0.001, 0.000316 mM). The IC50 values were determined by plotting a dose-response curve of inhibition % versus tested concentrations of the compound [62].

MTT cytotoxicity assay = type: cell-based, mouse; conditions: mouse, NIH/3T3 mouse embryonic fibroblast cells, read-out: Cytotoxicity NIH3T3 Cells IC50
Procedure: as §1

[2] = tested on: Pseudomona aeuroginosa ATCC 27853; assay: Antimicrobial broth microdilution (CLSI M07-A9); type: cell-based; conditions: for fold lower MIC50 / greater activity than chloramphenicol: Pseudomona aeuroginosa ATCC 27853; for MIC50: Pseudomona aeuroginosa [sic] ATCC 27853
Procedure: Microbiological studies were performed according to CLSI reference M07-A9 broth microdilution method for bacterial strains and EUCAST definitive method EDef 7.1 for Candida species. Synthesized compounds were tested for their in vitro growth inhibitory activity against Escherichia coli ATCC 35218, Escherichia coli ATCC 25922, Staphylococcus aureus, ATCC 25923, Pseudomona aeuroginosa ATCC 27853, Enterococcus faecalis ATCC29212, Klebsiella pneumoniae ATCC700603 Listeria monocytogenes ATCC7644, Candida albicans ATCC90028, Candida glabrata ATCC 90030, Candida krusei ATCC 6258, Candida parapsilosis ATCC 22019.
The cultures were obtained from Mueller-Hinton broth (Difco) for the bacterial strains and the yeasts were maintained in Roswell Park Memorial Institute (RPMI) medium, after an overnight incubation at 37 °C for both. The inocula of the test microorganisms were adjusted to match an equivalent turbidity of a 0.5 McFarland standard, which was determined using a spectrophotometer; the final inoculum size was determined to be 0.5–2.5 × 10^5 cfu/mL for antibacterial and antifungal assays. The tests were carried out for both mediums at pH = 7 and two-fold serial dilutions were applied. The last well on the microplates, which was containing only the inoculated broth, was kept as control, and the last well with no growth of microorganism was recorded to represent the minimum inhibitory concentration (MIC50) in μg/mL. For both of the antibacterial and antifungal assays, the test compounds and reference drugs were firstly dissolved in DMSO, and further dilutions were performed to the desired concentrations of 1000, 500, 250, 125, 62.5, 31.25, 15.6, 7.8, 3.9 and 1.95 μg/mL using Mueller–Hinton broth and RPMI medium. The completed plates were incubated for 24 h, and at the end of the incubation, resazurin (20 µg/mL) was added into each well to control the growth in the wells. Final plates including microorganism strains were incubated for 2 h. MIC50 values were determined using microplate reader at […] wavelengths; MIC50 readings were performed twice for entire compounds. Chloramphenicol and ketoconazole were used as reference drugs.

human recombinant MAO-A = molecular target: T1, human recombinant MAO-A (Homo sapiens, UniProt P21397); assay: MAO inhibition assay (kynuramine, fluorimetric); type: biochemical
T1 sequence (P21397 1-527): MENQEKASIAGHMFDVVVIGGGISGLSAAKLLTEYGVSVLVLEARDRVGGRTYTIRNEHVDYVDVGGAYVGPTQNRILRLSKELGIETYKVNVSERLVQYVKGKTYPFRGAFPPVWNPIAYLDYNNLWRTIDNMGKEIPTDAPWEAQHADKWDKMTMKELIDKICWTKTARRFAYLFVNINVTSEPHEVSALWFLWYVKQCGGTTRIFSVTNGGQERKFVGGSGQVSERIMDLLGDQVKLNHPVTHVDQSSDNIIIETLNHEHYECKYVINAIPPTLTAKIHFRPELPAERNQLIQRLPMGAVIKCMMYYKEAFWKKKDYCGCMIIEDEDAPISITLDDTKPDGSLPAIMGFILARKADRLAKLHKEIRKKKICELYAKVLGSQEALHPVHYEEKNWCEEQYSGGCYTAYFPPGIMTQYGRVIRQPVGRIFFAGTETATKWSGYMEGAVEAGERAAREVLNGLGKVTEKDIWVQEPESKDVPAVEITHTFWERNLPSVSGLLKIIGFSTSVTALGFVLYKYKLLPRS
Procedure: (§2) Enzyme activity assays were performed according to the procedure reported by Matsumoto et al. with slight modifications. In order to prevent the destructive effect of light on MAO enzymes, the assays were performed in 96-well black plates. Phosphate buffer solution (0.1 M, pH = 7.4) was used for preparation of stock solutions (5 mg/mL) of both human recombinant MAO-A and MAO-B enzymes. […] The addition of the test compound solution was followed by addition of either MAO-A or MAO-B enzyme (50 μL/well) solutions. After 10 min of incubation at 37 °C, kynuramine (50 μL/well) was added and enzyme-substrate reaction was initiated. The plate was incubated for 20 min at 37 °C and then reaction was terminated by addition of 2 N NaOH (75 μL/well). The fluorimetric reads from the top was performed at 310 nm excitation and 380 nm emission wavelengths.

human recombinant MAO-B = molecular target: T2, human recombinant MAO-B (Homo sapiens, UniProt P27338); assay: MAO inhibition assay (kynuramine, fluorimetric); type: biochemical
T2 sequence (P27338 1-520): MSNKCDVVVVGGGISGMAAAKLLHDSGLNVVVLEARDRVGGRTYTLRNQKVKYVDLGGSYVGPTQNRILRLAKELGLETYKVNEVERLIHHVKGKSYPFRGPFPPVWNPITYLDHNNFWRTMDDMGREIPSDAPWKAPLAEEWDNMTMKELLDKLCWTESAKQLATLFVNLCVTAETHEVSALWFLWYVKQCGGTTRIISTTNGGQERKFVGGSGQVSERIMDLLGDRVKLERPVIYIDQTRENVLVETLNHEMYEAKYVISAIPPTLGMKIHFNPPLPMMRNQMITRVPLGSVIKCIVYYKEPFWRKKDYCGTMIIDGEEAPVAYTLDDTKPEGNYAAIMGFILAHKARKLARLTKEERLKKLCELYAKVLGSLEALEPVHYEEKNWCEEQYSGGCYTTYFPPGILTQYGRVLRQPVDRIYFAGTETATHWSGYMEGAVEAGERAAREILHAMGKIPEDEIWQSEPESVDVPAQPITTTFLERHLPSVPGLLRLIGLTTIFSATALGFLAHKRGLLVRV
Procedure: as §2

SMILES	cytotoxicity in words [1]	IC50 (MTT cytotoxicity assay) [µM]	fold lower MIC50 / greater activity than chloramphenicol [2] [fold]	MIC50 [2] [µg/mL]	MAO-A Inhibition (%) (human recombinant MAO-A; 10^-3 M)	MAO-A Inhibition (%) (human recombinant MAO-A; 10^-4 M)	MAO-B Inhibition (%) (human recombinant MAO-B; 10^-3 M)	MAO-B Inhibition (%) (human recombinant MAO-B; 10^-4 M)
FC(F)(F)Oc1ccc(-c2nc3ccccc3n2CCN2CCOCC2)cc1 [Compound 2m, 2-(4-Trifluoromethoxyphenyl)-1-[2-(morpholin-4-yl)ethyl]-1H-benzimidazole]	non-cytotoxic	100	2	125 (≈ 319 µM)	34.29	16.39	25.84	12.43
Clc1ccc(-c2nc3ccccc3n2CCN2CCOCC2)cc1 [Compound 2c, 2-(4-Chlorophenyl)-1-[2-(morpholin-4-yl)ethyl]-1H-benzimidazole]	–	–	2	125 (≈ 366 µM)	31.58	26.17	41.12	33.54
CCOc1ccc(-c2nc3ccccc3n2CCN2CCOCC2)cc1 [Compound 2j, 2-(4-Ethoxyphenyl)-1-[2-(morpholin-4-yl)ethyl]-1H-benzimidazole]	non-cytotoxic	316	–	–	28.47	19.42	41.73	32.44
CC(C)c1ccc(-c2nc3ccccc3n2CCN2CCOCC2)cc1 [Compound 2e, 2-(4-Isopropylphenyl)-1-[2-(morpholin-4-yl)ethyl]-1H-benzimidazole]	–	–	–	250 (≈ 715 µM)	24.29	17.31	35.47	26.65
COc1ccc(-c2nc3ccccc3n2CCN2CCOCC2)cc1 [Compound 2b, 2-(4-Methoxyphenyl)-1-[2-(morpholin-4-yl)ethyl]-1H-benzimidazole]	non-cytotoxic	316	16	0.0156 (≈ 0.0462 µM)	29.44	24.61	32.44	31.75
